Consider one molecule from patent EP3595655B1, “THERAPEUTIC DOSAGE AND REGIMEN FOR MELATONIN” (Chiesi Farmaceutici S.p.A., priority 2017, dated 2018).

The nature of series [1]: Plasma melatonin levels in piglets (direct radioimmunoassay). In kind it is in vivo. The conditions noted are these: melatonin-treated piglets; therapeutic range from Robertson et al. 2013.
The subject of series [2] is rat organotypic hippocampal slice cultures. In words: Oxygen-glucose deprivation (OGD) in organotypic hippocampal slice cultures, cell death by propidium iodide incorporation. In kind it is cell-based. The settings on record: for Cell death, estimated by propidium iodide incorporation, induced by OGD: OGD alone 90.8 ± 7.6%. The text has this: Concentration-response studies were aimed at detecting the range of concentration of melatonin resulting in neuroprotection against oxygen-glucose deprivation (OGD), an experimental model simulating hypoxia-ischemia and reperfusion. Ischemia was simulated in vitro by anoxia combined with a glucose-free media (OGD) in rat organotypic hippocampal slice cultures.

Series [3] in a line: Solubilisation of melatonin with Captisol, with or without PEG, in different vehicles. The settings on record: Captisol solutions in WFI, glucose 10% solution or phosphate buffer. The format is physicochemical. The protocol: The first set of experiments was aimed to assess the possibility to solubilise melatonin with different quantity of sulfobutylether-β-cyclodextrin (Captisol™). The test was performed by the addition of melatonin. In the solution containing the Captisol at different concentrations up to presence of undissolved material on the bottom; the solution was filtered and analysed. These tests were performed with three different vehicles: water for injection (WFI), glucose 10% solution and phosphate buffer. In a second set of experiments, PEG with different molecular weights (PEG 300 and PEG 400) was added to verify the possibility to reduce the amount of Captisol used for the dissolution. The results of the first set of experiments, were obtained measuring the assay in formulation at the higher solubility limits having on the bottom some undissolved particles. […] Captisol concentration of 5% was identified as a suitable one, and confirmed by the other results.

Series [4] has as its system piglet model of neonatal asphyxia. The settings on record: for NTP/epp (whole forebrain, 9.4T MRS): 24h after hypoxia-ischaemia, melatonin 15 mg/kg i.v. over 6h at 2h and 26h plus cooling, p=0.038; for cell death (TUNEL positive cells) in the sensorimotor cortex: p<0.003, p=0.003 (Fig. 4).
Procedure: Objective: To assess neuroprotection of intravenous melatonin (15 mg/kg) infused slowly over 6h (2.5 mg/kg/h) initiated 2 h after hypoxia-ischaemia in a piglet model of neonatal asphyxia (Fig. 1). Primary outcome measures were TUNEL immuno-labelling of cell death over 9 brain regions (Fig. 2). Secondary outcomes were amplitude-integrated electroencephalography(aEEG) recovery, and magnetic resonance spectroscopy (MRS) biomarkers (NTP/epp and lactate/N acetyl aspartate).
During hypoxia-ischemia the β-NTP peak height was continuously monitored using in-house Matlab (Mathworks) software. At the point at which β-NTP had fallen to 50% of its baseline value, FiO2 was increased to 9%. […] The head was immobilized in a stereotactic frame for MRS acquisition. […] After surgical preparation, multichannel six-lead EEG monitoring (Nicolet, Care Fusion, Wisconsin, USA) was acquired at baseline and throughout the periods between MRS data acquisitions. Filtered amplitude-integrated EEG recordings were classified according to the pattern classification. A score of 0 was flat trace; 1, continuous low voltage; 2, burst suppression; 3, discontinuous normal voltage; and 4, continuous normal voltage, at baseline and then every hour after hypoxia-ischemia. […] Blood samples were collected in lithium/heparin tubes and centrifuged immediately after collection. Plasma was separated and then stored at - 20°C before analysis. Melatonin was routinely measured by direct radioimmunoassay.
A further series has as its system newborn piglets. The settings on record: intravenous 5 mg/kg/h over six hours (30 mg/kg), 10 minutes after resuscitation; cited from earlier work.

“Also recorded” adds a separate entry of the source. Like-named read-outs stand apart in the source and are kept apart here.

Regarding `COc1ccc2[nH]cc(CCNC(C)=O)c2c1` [melatonin, N-[2-(5-Methoxy-1H-indol-3-yl)ethyl] acetamide], the plasma levels entry in series [1] was “within the expected therapeutic range”. The “Cell death, estimated by propidium iodide incorporation, induced by OGD” value in series [2] (3 µM melatonin) is given as 57.6 ± 6.9%; in series [2] (10 µM melatonin), 60.9 ± 7.4%; in series [2] (25 µM melatonin), 47.3 ± 3.8%; in series [2] (50 µM melatonin), 38.9 ± 4.2%. Besides, the “statistical analysis of the effect on OGD-induced cell death” value in series [2] (all doses tested with the exception of 1 uM, p<0.01 Dunnet's test after ANOVA) is given as “significant effect”. Further, in series [2] (hippocampal slice cultures of neonatal rats, 1-50 µM), the “reduction of OGD-induced cell death” value was “concentration-dependent manner”. In series [3], the “influence of glucose or buffer as vehicle on solubility” value is “does not influence the solubility”. Further, the “3T MRS: NTP/epp and PCr/Pi in whole forebrain, Lac/NAA in thalamus and white matter” value in series [4] (24 and 48h after hypoxia-ischaemia) is “no difference in any ratio”. Besides, the “NTP/epp (whole forebrain, 9.4T MRS)” value is recorded as “ameliorated the NTP/ePP decline” in series [4] (versus vehicle) and “higher” in series [4] (versus vehicle, listed as Melatonin). Also, the “9.4T MRS: NTP/epp and PCr/Pi in whole forebrain, Lac/NAA in thalamus and white matter” value in series [4] (baseline, 24 and 48h after hypoxia-ischaemia, melatonin 5 and 15 mg/kg groups versus vehicle, apart from 24h NTP/epp) was “no difference”. In series [4] (between groups at any time point), the “group mean hourly aEEG scores” value was “no difference”. Besides, the brain protection entry in series [4] (melatonin 5 mg/kg/24h i.v. over 6h started 2h after hypoxia-ischaemia plus cooling) is listed as “no protection”. In addition, the “cell death (TUNEL positive cells) in the sensorimotor cortex” value in series [4] (melatonin 15 mg/kg/24h i.v. over 6h started 2h after hypoxia-ischaemia plus cooling, versus vehicle, 48h) is “significant protection; also recorded: significant reduction in TUNEL positive cells”; in series [4] (melatonin 15 mg/kg/24h i.v. over 6h started 2h after hypoxia-ischaemia plus cooling, versus vehicle, 48h, listed as Melatonin) it was “reduced cell death”. The “cell death (TUNEL positive cells) across the whole brain” value in series [4] (melatonin 15 mg/kg/24h i.v. over 6h started 2h after hypoxia-ischaemia plus cooling, versus vehicle, 48h, p=0.068, p=0.069 (Fig. 4)) was “trend of reduced cell death; also recorded: trend to overall brain reduced TUNEL positive cells; also recorded: trend towards reduced TUNEL positive cells”. The “physiological parameters monitored, including mean arterial pressure and inotrope use” value in series [4] (piglets, melatonin i.v. infusion plus cooling) is reported as “did not affect”. Also, in the series on newborn piglets, the hypothermic neuroprotection result is reported as “increases hypothermic neuroprotection”.
